In US9775353B2, “Pesticidally active heterocyclic derivatives with sulphur containing substituents” (Syngenta Participations AG, priority 2014, dated 2017) one finds pest or weed control, mortality and melting point data, which are given here for 14 molecules.

For data set [1], the system named is Myzus persicae (green peach aphid). Nature of the data set: Example B8: Activity against Myzus persicae (feeding/residual contact, preventive, mixed population). Format: in vivo. The note with it: foliar, 144 h, sunflower leaf discs sprayed, mixed ages, mortality 6 DAT. How it is done:
Example B8: Activity Against Myzus persicae (Green Peach Aphid) (Feeding/Residual Contact Activity, Preventive), Mixed Population Sunflower leaf discs were placed on agar in a 24-well microtiter plate and sprayed with test solutions. After drying, the leaf discs were infested with an aphid population of mixed ages. After an incubation period of 6 DAT, samples were checked for mortality and special effects (e.g. phytotoxicity).

The test system of data set [2] is Euschistus heros (neotropical brown stink bug). Briefly: Example B10: Activity against Euschistus heros. Format: in vivo. The note with it: 120 h, soybean leaf sprayed, N-2 nymphs, mortality 5 days after infestation. The procedure:
Example B10: Activity Against Euschistus heros (Neotropical Brown Stink Bug) Soybean leaf on agar in 24-well microtiter plates were sprayed with aqueous test solutions prepared from 10,000 ppm DMSO stock solutions. After drying the leaf were infested with N-2 nymphs. The samples were assessed for mortality 5 days after infestation.

Data set [3] concerns Plutella xylostella (diamond back moth). Briefly: Example B2: Activity against Plutella xylostella (larvicide, feeding/residual contact, preventive). Format: in vivo. The note with it: 120 h, artificial diet, L2 larvae, larval mortality, antifeedant, growth regulation after 5 days. How it is done:
Example B2: Activity Against Plutella xylostella (Diamond Back Moth) (Larvicide, Feeding/Residual Contact Activity, Preventive) 24-well microtiter plate (MTP) with artificial diet was treated with test solutions by pipetting. After drying, the MTPs were infested with L2 larvae (10-15 per well). After an incubation period of 5 days, samples were checked for larval mortality, antifeedant and growth regulation.

In data set [4] the test system is Diabrotica balteata (corn root worm). Nature of the data set: Example B3: Activity against Diabrotica balteata (larvae L2 on maize sprouts, feeding/contact, preventative). Format: in vivo. The note with it: 120 h, maize sprouts sprayed, larval mortality and growth regulation after 5 days. The procedure:
Example B3: Activity Against Diabrotica balteata (Corn Root Worm) (Larvae L2 on Maize Sprouts, Feeding/Contact, Preventative) Maize sprouts, placed on an agar layer in 24 well micro titer plates were treated with test solutions by spraying. After drying, the MTPs were infested with L2 larvae (6-10 per well). After an incubation period of 5 days, samples were checked for larval mortality and growth regulation.

Data set [5] deals with Bemisia tabaci (cotton white fly). Nature of the data set: Example B5: Activity against Bemisia tabaci (adulticide contact activity, preventative). Format: in vivo. The note with it: foliar, 168 h, cotton leaf discs sprayed, adult white flies, mortality 7 DAT. How it is done:
Example B5: Activity Against Bemisia tabaci (Cotton White Fly) (Adulticide Contact Activity, Preventative), Adult Cotton leaf discs were placed on agar in a 24-well microtiter plate and sprayed with test solutions. After drying, the leaf discs were infested with adult white flies. After an incubation period of 7 DAT, samples were checked for mortality and special effects (e.g. phytotoxicity).

Data set [6] deals with Spodoptera littoralis (Egyptian cotton leaf worm). Briefly: Example B7: Activity against Spodoptera littoralis (systemic activity). Format: in vivo. The settings on record: 120 h, systemic via lettuce roots in agar, mortality, repellent effect, feeding behavior, growth regulation 5 days after infestation. The source says: Example B7: Activity Against Spodoptera littoralis (Egyptian Cotton Leaf Worm) (Systemic Activity) Test compounds were applied by pipette into 24 well plates and mixed with agar. Lettuce seeds were placed on the agar and the multi well plate is closed by another plate which contains also agar. After 7 days the roots have absorbed the compound and the lettuce has grown into the lid plate. The lettuce leaves were now cut off into the lid plate. Spodoptera eggs were pipetted through a plastic stencil on a humid gel blotting paper and the plate closed with it. The samples are checked for mortality, repellent effect, feeding behavior, and growth regulation 5 days after infestation.

The test system is the same in data set [7]. Nature of the data set: Example B1: Activity against Spodoptera littoralis (larvicide, feeding/residual contact, preventive). In kind it is in vivo. The settings on record: foliar, 72 h, cotton leaf discs sprayed, L1 larvae, mortality, repellent effect, feeding behaviour, growth regulation 3 days after treatment. The source says: Example B1: Activity Against Spodoptera littoralis (Egyptian Cotton Leaf Worm) (Larvicide, Feeding/Residual Contact Activity, Preventive) Cotton leaf discs were placed on agar in a 24-well microtiter plate and sprayed with test solutions. After drying, the leaf discs were infested with 5 L1 larvae. The samples were checked for mortality, repellent effect, feeding behaviour, and growth regulation 3 days after treatment (DAT).

In data set [8] the test system is Tetranychus urticae (two-spotted spider mite). Briefly: Example B12: Activity against Tetranychus urticae. The settings on record: foliar, 192 h, application rate 400 ppm, bean leaf discs sprayed, mixed population (mobile stages), 8 days after infestation. Format: in vivo. How it is done: Example B12: Activity Against Tetranychus urticae (Two-Spotted Spider Mite)
Bean leaf discs on agar in 24-well microtiter plates were sprayed with aqueous test solutions prepared from 10,000 ppm DMSO stock solutions. After drying the leaf discs were infested with a mite population of mixed ages. The samples were assessed for mortality on mixed population (mobile stages) 8 days after infestation.

The test system of data set [9] is Thrips tabaci (onion thrips). Nature of the data set: Example B11: Activity against Thrips tabaci. In kind it is in vivo. The settings on record: foliar, 144 h, application rate 400 ppm, sunflower leaf discs sprayed, mixed ages, 6 days after infestation. The procedure:
Example B11: Activity Against Thrips tabaci (Onion Thrips)
Sunflower leaf discs were placed on agar in 24-well microtiter plates and sprayed with aqueous test solutions prepared from 10,000 ppm DMSO stock solutions. After drying the leaf discs were infested with a thrips population of mixed ages. The samples were assessed for mortality 6 days after infestation.

Bounds are passed on as bounds.

Broadly, the pest or weed control is the degree to which the test organism was suppressed or injured, in per cent. On to `CCS(=O)(=O)c1cc(-c2ccc(C(F)(F)F)cc2)cnc1-c1nc2cc(C(F)(F)F)ncc2n1C` [Compound P2], for which the pest or weed control at 400 ppm in data set [1], in data set [2], in [3], in data set [4], in data set [5] and in data set [7] was over 80% throughout. For the same molecule, in data set [6], the pest or weed control at 12.5 ppm was at least 80%.
As for `CCS(=O)(=O)c1cc(-c2cccc(C(F)(F)F)c2)cnc1-c1nc2cc(C(F)(F)F)ncc2n1C` [Compound P3], the pest or weed control at 400 ppm in [1], in data set [2], in data set [3], in data set [4], in data set [5] and in data set [7] was over 80% throughout. The molecule also returned a pest or weed control at 12.5 ppm in data set [6] of at least 80%.
The mortality is the share of the test organisms that died. A higher mortality goes with fewer survivors. `CCS(=O)(=O)c1cc(-c2ccccc2C(F)(F)F)cnc1-c1nc2cc(C(F)(F)F)ncc2n1C` [Compound P4] displayed a mortality at 400 ppm in [8] of at least 80%. The pest or weed control at 400 ppm in data set [4] and in data set [7] was over 80% throughout.
For the molecule `CCS(=O)(=O)c1cc(-c2cccc(Cl)c2)cnc1-c1nc2cc(C(F)(F)F)ncc2n1C` [Compound P5], the pest or weed control at 400 ppm in data set [1], in [2], in data set [3], in data set [4], in data set [5] and in [7] was over 80% each time. This molecule also registered a pest or weed control at 12.5 ppm in data set [6] of at least 80%.
Turning to `CCS(=O)(=O)c1cc(-c2cc(F)cc(F)c2)cnc1-c1nc2cc(C(F)(F)F)ncc2n1C` [Compound P7], the pest or weed control at 400 ppm in [1], in data set [2], in [3], in data set [4], in data set [5] and in data set [7] was over 80% each time. Further, in data set [9], the mortality at 400 ppm is at least 80%. For the same molecule, the pest or weed control at 12.5 ppm in data set [6] is at least 80%.
Consider `CCS(=O)(=O)c1cc(-c2ccc(F)cc2)cnc1-c1nc2cc(C(F)(F)F)ncc2n1C` [Compound P13], for which the pest or weed control at 400 ppm in [1], in data set [2], in data set [3], in data set [4], in data set [5] and in [7] was over 80% throughout. Besides, in data set [9], the mortality at 400 ppm is at least 80%. The molecule further registered a pest or weed control at 12.5 ppm in data set [6] of at least 80%.
Regarding `CCS(=O)(=O)c1cc(-c2cccc(OC(F)(F)F)c2)cnc1-c1nc2cc(C(F)(F)F)ncc2n1C` [Compound P25], the pest or weed control at 400 ppm in data set [1], in [2], in [3], in data set [4], in data set [5] and in [7] was over 80% each time. The same molecule yielded a pest or weed control at 12.5 ppm in [6] of at least 80%.
As for `CCS(=O)(=O)c1cc(-c2ccc(C#N)cc2)cnc1-c1nc2cc(C(F)(F)F)ncc2n1C` [Compound P36], the mortality at 400 ppm in [8] and in data set [9] was at least 80% each time. Besides, the pest or weed control at 400 ppm in data set [1], in [2], in data set [3], in [4], in data set [5] and in data set [7] was over 80% in each case. Further, in data set [6], the pest or weed control at 12.5 ppm is at least 80%.
For orientation: melting point means the temperature of the solid-liquid transition. As to `CCS(=O)(=O)c1cc(-c2ccccc2)cnc1-c1nc2cc(C(F)(F)F)ncc2n1C` [Compound P39], the melting point was in the range of 170 to 172 °C.
The same measure, in the same setting: to `CCS(=O)(=O)c1cc(-c2ccc(F)cc2F)cnc1-c1nc2cc(C(F)(F)F)ncc2n1C` [Compound P41] belongs 223 to 225 °C; to `CCS(=O)(=O)c1cc(-c2cc(Cl)cc(Cl)c2)cnc1-c1nc2cc(C(F)(F)F)ncc2n1C` [Compound P42], 270 to 272 °C.
The same measure, in the same setting: to `CCS(=O)(=O)c1cc(-c2cc(Cl)c(F)c(Cl)c2)cnc1-c1nc2cc(C(F)(F)F)ncc2n1C` [Compound P43] belongs 235 to 237 °C; to `CCS(=O)(=O)c1cc(-c2cccc(C#N)c2)cnc1-c1nc2cc(C(F)(F)F)ncc2n1C` [Compound P44], 257 to 259 °C; to `CCS(=O)(=O)c1cc(-c2ccc(OC(F)(F)F)cc2)cnc1-c1nc2cc(C(F)(F)F)ncc2n1C` [Compound P45], 181 to 183 °C.
